{
  "source": "patent US20240247031A1",
  "about": "“COMPOSITION FOR TREATING CANCER CONTAINING TELOMERASE-TARGETING GNRH ANTAGONIST-DERIVED PEPTIDE HS1002” (Research & Business Foundation Sungkyunkwan University, priority 2023, published 2024)",
  "key": {"hTERT": {"tested_on": "hTERT", "test": "hTERT mRNA and protein expression, western blot and qPCR (FIG. 10, 11)", "type": "cell-based, human", "settings": "LNCaP, different concentrations, western blot", "protocol": "To analyze the changes in the hTERT expression level and telomerase activity by the treatment with the produced peptides, real-time PCR was performed. Total RNA was extracted from cells by using an Easy-blue RNA extraction reagent (Intron, Korea), and subsequently, the extracted RNA was reverse transcribed using M-ML V reverse transcriptase (Invitrogen, CA). The PCR reaction was then performed using a LightCycler 480 SYBR Green I Master (Roche, Germany) according to the manufacturer's instructions. […]\nQuantitative real-time RT-PCR (qRT-PCR) was performed using a Power SYBR Green 1-Step Kit and an ABI 7000 Real Time PCR System (Applied Biosystems, Carlsbad, CA, USA) according to the manufacturer's indications. […] The results were expressed as the ratio of target PCR product to GAPDH product. […] The quantification was performed using the ΔΔCT method (Applied Biosystems) with the RQ manager 1.2 software. Data are expressed as mean±SD. […]\nAfter treatment with GV1001, HS1001, HS1002, and GnRH, the changes in hTERT mRNA and protein expression level were investigated for each peptide. […] To investigate the telomerase activity reducing effect of the peptides, prostate cancer cell lines (LNCaP) were treated with each drug at 300 μM every 24 h for a total of 72 h and then measured for telomerase activity through qPCR. […]"}, "[1]": {"tested_on": "tumor-infiltrating CD45+ and CD8+ cells in MC38 tumor", "test": "Flow cytometry of tumor infiltrating leukocytes in MC38 tumors (FIG. 20)", "type": "in vivo, mouse", "settings": "MC38 tumor tissue, vs vehicle", "source_text": "A mouse tumor dissociation kit (Cat. 130-096-730, Miltenyi Biotec, Bergisch Gladbach, Germany) was used for tumor digestion according to the manufacturer's protocol. Briefly, the tumor was cut into small fragments with RPMI 1640 containing enzymes D, R, and A. After filtration through a 70 μm cell strainer, red blood cells were removed using RBC lysis buffer (Cat. 420301, BioLegend, San Diego, CA, USA). The acquired single-cell suspension was used for further analysis. For analysis of intracellular cytokines, the cell suspension was incubated in the presence of a cell stimulation cocktail (with a protein transport inhibitor) (Cat. 00-4975-93, Invitrogen, eBioscience) for 5 h and subjected to fixation and permeabilization using an intracellular fixation and permeabilization buffer set (Cat. 88-8824-00, Thermo Fisher) according to the manufacturer's protocol. Following the staining process, samples were analyzed with Novocyte (ACEA Biosciences, San Diego, CA, USA).\nCTLs are the key mediators of granzyme- and perforin-mediated cancer cell destruction during cancer immunosurveillance and immunotherapy. […] To investigate the effect of HS1002 on tumor-infiltrating CD8^+ T cells in MC38 tumor tissue, flow cytometric analysis was used. Flow cytometric analysis confirmed that HS1002 elevated the total number of tumor-infiltrating CD45+ cells and the production of granzyme B and IFN-γ in CD8^+ cells and in MC38 tumor tissue (FIG. 20A). To assess the effect of HS1002 on immune response-related gene expression in a syngeneic mouse model, gene expression analysis was conducted by profiling the transcriptomes of the tumor. A total of 49,196 genes were analyzed in tumor tissues, and genes with a fold change exceeding 1.5 were included for further analysis with statistical significance at p<0.05."}},
  "data": [
    {"smiles": "CCNC(=O)[C@@H]1CCCN1C(=O)[C@@H](NC(=O)[C@H](Cc1ccccc1)NC(=O)[C@H](CCCNC(=N)N)NC(=O)[C@H](CC(C)C)NC(=O)[C@H](CCCNC(=N)N)NC(=O)[C@H](Cc1ccc(O)cc1)NC(=O)[C@H](CO)NC(=O)[C@H](Cc1c[nH]c2ccccc12)NC(=O)[C@H](Cc1c[nH]cn1)NC(=O)[C@@H]1CCC(=O)N1)[C@@H](C)CC", "note": "[HS1002]", "values": [
      {"measurement": "hTERT protein expression, concentration dependence", "setting": "hTERT", "result": "reduced with an increasing concentration"},
      {"measurement": "production of IFN-γ in CD8+ cells", "setting": "[1]", "result": "elevated"},
      {"measurement": "production of granzyme B in CD8+ cells", "setting": "[1]", "result": "elevated"},
      {"measurement": "total number of tumor-infiltrating CD45+ cells", "setting": "[1]", "result": "elevated"}
    ]}
  ]
}
